Data reported in patent US10294202B2, “Pyrrolidinones as herbicides” (FMC Corporation, priority 2013, dated 2019).

How the values were obtained:
[1] = tested on: barnyardgrass; assay: Test A pre-/postemergence herbicide test; assay type: in vivo, Echinochloa crus-galli
How it was run: (§1)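 Seeds in loam–sand blend received preemergence directed soil spray; separately, plants 2–10 cm at one- to two-leaf stage received postemergence spray, both with test chemicals in non-phytotoxic solvent with surfactant. After ~10 days in greenhouse, injury rated visually against untreated controls, 0 (no effect) to 100 (complete control).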

[2] = tested on: giant foxtail; assay: Test A pre-/postemergence herbicide test; assay type: in vivo, Setaria faberii
How it was run: as §1

[3] = tested on: corn; assay: Test A pre-/postemergence herbicide test; assay type: in vivo, Zea mays; conditions: Postemergence
How it was run: as §1

[4] = tested on: rice; assay: Test B flooded paddy test; assay type: in vivo, Oryza sativa; conditions: 500 g ai/ha, Flood; scale of 0 to 100 where 0 is no effect and 100 is complete control
How it was run: (§2)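 Scored visually 0–100 (0 no effect, 100 complete control) versus controls after 13 to 15 greenhouse days. Treatment: compound added to paddy water kept 3 cm above soil, on 2-leaf-stage plants.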

[5] = tested on: sedge, umbrella; assay: Test B flooded paddy test; assay type: in vivo, Cyperus difformis; conditions: 500 g ai/ha, Flood; scale of 0 to 100 where 0 is no effect and 100 is complete control
How it was run: as §2

[6] = tested on: wheat (winter wheat); assay: Test C pre-/postemergence herbicide test; assay type: in vivo, Triticum aestivum
How it was run: (§3)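 Pre-emergence: seeds sown in loam/sand blend and treated with compound in surfactant-containing solvent. Post-emergence: plants at 2–18 cm (1- to 4-leaf stage) in peat-based medium sprayed with the same formulation. Visual rating versus controls after 13–15 days in greenhouse, scale 0 (no effect) to 100 (complete control).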

[7] = tested on: foxtail, giant; assay: Test C pre-/postemergence herbicide test; assay type: in vivo, Setaria faberii
How it was run: as §3

[8] = tested on: lambsquarters; assay: Test C pre-/postemergence herbicide test; assay type: in vivo, Chenopodium album
How it was run: as §3

[9] = tested on: morningglory; assay: Test C pre-/postemergence herbicide test; assay type: in vivo, Ipomoea coccinea
How it was run: as §3

[10] = tested on: nutsedge, yellow; assay: Test C pre-/postemergence herbicide test; assay type: in vivo, Cyperus esculentus
How it was run: as §3

[11] = tested on: velvetleaf; assay: Test C pre-/postemergence herbicide test; assay type: in vivo, Abutilon theophrasti
How it was run: as §3

[12] = 125 g ai/ha, visual rating, 0 to 100 scale, 0 no effect, 100 complete control, approximately 10 days, preemergence
[13] = Postemergence, 125 g ai/ha, 0 to 100 scale, 0 is no effect, 100 is complete control
[14] = preemergence, 500 g ai/ha, 0 to 100 scale, 0 is no effect and 100 is complete control
[15] = 125 g ai/ha, 0 to 100 scale, 0 is no effect, 100 is complete control
[16] = Postemergence, 31 g ai/ha, scale 0 to 100 (0 no effect, 100 complete control)
[17] = Postemergence, 62 g ai/ha, scale 0 (no effect) to 100 (complete control)
[18] = Postemergence, 125 g ai/ha, scale 0 to 100 (0 no effect, 100 complete control)
[19] = Postemergence, 250 g ai/ha, scale 0 to 100 (0 no effect, 100 complete control)
[20] = Preemergence, 31 g ai/ha, scale 0 to 100, 0 is no effect and 100 is complete control
[21] = Preemergence, 62 g ai/ha, scale 0 to 100 (0 no effect, 100 complete control)
[22] = Preemergence, 125 g ai/ha, scale 0 to 100 (0 no effect, 100 complete control)
[23] = Postemergence, 125 g ai/ha, visual rating on 0 to 100 scale (0 no effect, 100 complete control), approx. 10 days
[24] = Postemergence, 500 g ai/ha, 0 to 100 scale (0 no effect, 100 complete control)
[25] = Preemergence, 125 g ai/ha, 0 to 100 scale where 0 is no effect and 100 is complete control
[26] = Preemergence, 500 g ai/ha, visual rating on 0 to 100 scale (0 no effect, 100 complete control)

O=C1NCC(c2cccc(OC(F)F)c2)C1C(=O)Nc1cccc(F)c1F (stereo not shown) [Compound 224]
Plant response rating, Barnyardgrass [1, 12]: 90 | Plant response rating, Barnyardgrass [1, 13]: 80 | Barnyardgrass plant response rating (0 to 100 scale, 0 is no effect, 100 is complete control) ([1]; Postemergence, 500 g ai/ha): 90 | Plant response rating, Barnyardgrass [1, 14]: 90 | Plant response rating, Foxtail, Giant [2, 12]: 90 | Plant response rating, Foxtail, Giant [2, 13]: 80 | Foxtail, Giant plant response rating (0 to 100 scale, 0 is no effect, 100 is complete control) ([2]; Postemergence, 500 g ai/ha): 80 | Plant response rating, Foxtail, Giant [2, 14]: 90 | Plant response rating, Corn [3, 15]: 60 | Corn plant response rating (0 to 100 scale, 0 is no effect, 100 is complete control) ([3]; 500 g ai/ha): 80 | Plant response rating, Rice [4]: 0 | Plant response rating, Sedge, Umbrella [5]: 0 | Plant response rating, Wheat [6, 16]: 0 | Plant response rating, Wheat [6, 17]: 0 | Plant response rating, Wheat [6, 18]: 5 | Plant response rating, Wheat [6, 19]: 5 | Wheat plant response rating [6, 20]: 0 | Wheat plant response rating [6, 21]: 0 | Plant response rating, Wheat [6, 22]: 0 | Plant response rating (scale of 0 to 100), Wheat ([6]; Preemergence, 250 g ai/ha): 45 | Plant response rating, Foxtail, Giant [7, 16]: 0 | Plant response rating, Foxtail, Giant [7, 17]: 0 | Plant response rating, Foxtail, Giant [7, 18]: 60 | Plant response rating, Foxtail, Giant [7, 19]: 35 | Foxtail, Giant plant response rating [7, 20]: 80 | Foxtail, Giant plant response rating [7, 21]: 90 | Plant response rating, Foxtail, Giant [7, 22]: 95 | Plant response rating (scale of 0 to 100), Foxtail, Giant ([7]; Preemergence, 250 g ai/ha): 98 | Plant response rating, Lambsquarters [8, 16]: 5 | Plant response rating, Lambsquarters [8, 17]: 50 | Plant response rating, Lambsquarters [8, 18]: 70 | Plant response rating, Lambsquarters [8, 19]: 60 | Lambsquarters plant response rating [8, 20]: 55 | Lambsquarters plant response rating [8, 21]: 65 | Plant response rating, Lambsquarters [8, 22]: 95 | Plant response rating (scale of 0 to 100), Lambsquarters ([8]; Preemergence, 250 g ai/ha): 95 | Plant response rating, Morningglory [9, 16]: 5 | Plant response rating, Morningglory [9, 17]: 5 | Plant response rating, Morningglory [9, 18]: 35 | Plant response rating, Morningglory [9, 19]: 35 | Morningglory plant response rating [9, 20]: 5 | Morningglory plant response rating [9, 21]: 25 | Plant response rating, Morningglory [9, 22]: 5 | Plant response rating (scale of 0 to 100), Morningglory ([9]; Preemergence, 250 g ai/ha): 30 | Plant response rating, Nutsedge, Yellow [10, 16]: 0 | Plant response rating, Nutsedge, Yellow [10, 17]: 0 | Plant response rating, Nutsedge, Yellow [10, 18]: 0 | Plant response rating, Nutsedge, Yellow [10, 19]: 0 | Nutsedge, Yellow plant response rating [10, 20]: 0 | Nutsedge, Yellow plant response rating [10, 21]: 10 | Plant response rating, Nutsedge, Yellow [10, 22]: 0 | Plant response rating (scale of 0 to 100), Nutsedge, Yellow ([10]; Preemergence, 250 g ai/ha): 0 | Plant response rating, Velvetleaf [11, 16]: 0 | Plant response rating, Velvetleaf [11, 17]: 0 | Plant response rating, Velvetleaf [11, 18]: 25 | Plant response rating, Velvetleaf [11, 19]: 35 | Velvetleaf plant response rating [11, 20]: 0 | Velvetleaf plant response rating [11, 21]: 5 | Plant response rating, Velvetleaf [11, 22]: 45 | Plant response rating (scale of 0 to 100), Velvetleaf ([11]; Preemergence, 250 g ai/ha): 40

O=C1NCC(c2ccc(C(F)(F)F)cc2)C1C(=O)Nc1ccccc1F (stereo not shown) [Compound 231]
Plant response rating, Barnyardgrass [1, 12]: 90 | Plant response rating, Barnyardgrass [1, 13]: 80 | Barnyardgrass plant response rating (0 to 100 scale, 0 is no effect, 100 is complete control) ([1]; Postemergence, 500 g ai/ha): 90 | Plant response rating, Barnyardgrass [1, 14]: 90 | Plant response rating, Foxtail, Giant [2, 12]: 90 | Plant response rating, Foxtail, Giant [2, 13]: 70 | Foxtail, Giant plant response rating (0 to 100 scale, 0 is no effect, 100 is complete control) ([2]; Postemergence, 500 g ai/ha): 90 | Plant response rating, Foxtail, Giant [2, 14]: 90 | Plant response rating, Corn [3, 15]: 30 | Corn plant response rating (0 to 100 scale, 0 is no effect, 100 is complete control) ([3]; 500 g ai/ha): 40 | Plant response rating, Rice [4]: 0 | Plant response rating, Sedge, Umbrella [5]: 0 | Wheat plant response rating [6, 20]: 0 | Wheat plant response rating [6, 21]: 15 | Plant response rating, Wheat [6, 22]: 20 | Plant response rating (scale of 0 to 100), Wheat ([6]; Preemergence, 250 g ai/ha): 80 | Foxtail, Giant plant response rating [7, 20]: 90 | Foxtail, Giant plant response rating [7, 21]: 90 | Plant response rating, Foxtail, Giant [7, 22]: 98 | Plant response rating (scale of 0 to 100), Foxtail, Giant ([7]; Preemergence, 250 g ai/ha): 95 | Lambsquarters plant response rating [8, 20]: 40 | Lambsquarters plant response rating [8, 21]: 85 | Plant response rating, Lambsquarters [8, 22]: 85 | Plant response rating (scale of 0 to 100), Lambsquarters ([8]; Preemergence, 250 g ai/ha): 100 | Morningglory plant response rating [9, 20]: 0 | Morningglory plant response rating [9, 21]: 0 | Plant response rating, Morningglory [9, 22]: 0 | Plant response rating (scale of 0 to 100), Morningglory ([9]; Preemergence, 250 g ai/ha): 20 | Nutsedge, Yellow plant response rating [10, 20]: 0 | Nutsedge, Yellow plant response rating [10, 21]: 0 | Plant response rating, Nutsedge, Yellow [10, 22]: 0 | Plant response rating (scale of 0 to 100), Nutsedge, Yellow ([10]; Preemergence, 250 g ai/ha): 0 | Velvetleaf plant response rating [11, 20]: 10 | Velvetleaf plant response rating [11, 21]: 25 | Plant response rating, Velvetleaf [11, 22]: 35 | Plant response rating (scale of 0 to 100), Velvetleaf ([11]; Preemergence, 250 g ai/ha): 60

CN1CC(c2ccc(F)c(F)c2)C(C(=O)Nc2cccc(F)c2F)C1=O (stereo not shown) [Compound 303]
Plant response rating, Barnyardgrass [1, 23]: 80 | Plant response rating, Barnyardgrass [1, 24]: 90 | Plant response rating, Barnyardgrass [1, 25]: 90 | Barnyardgrass plant response rating [1, 26]: 90 | Plant response rating, Foxtail, Giant [2, 23]: 80 | Plant response rating, Foxtail, Giant [2, 24]: 80 | Plant response rating, Foxtail, Giant [2, 25]: 90 | Foxtail, Giant plant response rating [2, 26]: 90 | Plant response rating, Corn ([3]; 125 g ai/ha, visual rating on 0 to 100 scale (0 no effect, 100 complete control), approx. 10 days): 50 | Plant response rating, Corn ([3]; 500 g ai/ha, 0 to 100 scale (0 no effect, 100 complete control)): 70 | Plant response rating, Rice [4]: 30 | Plant response rating, Sedge, Umbrella [5]: 0 | Plant response rating, Wheat [6, 16]: 0 | Plant response rating, Wheat [6, 17]: 0 | Plant response rating, Wheat [6, 18]: 0 | Plant response rating, Wheat [6, 19]: 0 | Wheat plant response rating [6, 20]: 0 | Wheat plant response rating [6, 21]: 75 | Plant response rating (scale of 0 to 100), Wheat ([6]; Preemergence, 250 g ai/ha): 90 | Plant response rating, Foxtail, Giant [7, 17]: 80 | Plant response rating, Foxtail, Giant [7, 18]: 85 | Plant response rating, Foxtail, Giant [7, 19]: 90 | Foxtail, Giant plant response rating [7, 20]: 90 | Foxtail, Giant plant response rating [7, 21]: 95 | Plant response rating, Foxtail, Giant [7, 22]: 98 | Plant response rating (scale of 0 to 100), Foxtail, Giant ([7]; Preemergence, 250 g ai/ha): 100 | Plant response rating, Lambsquarters [8, 16]: 35 | Plant response rating, Lambsquarters [8, 17]: 85 | Plant response rating, Lambsquarters [8, 18]: 65 | Plant response rating, Lambsquarters [8, 19]: 80 | Lambsquarters plant response rating [8, 20]: 55 | Lambsquarters plant response rating [8, 21]: 60 | Plant response rating, Lambsquarters [8, 22]: 65 | Plant response rating (scale of 0 to 100), Lambsquarters ([8]; Preemergence, 250 g ai/ha): 80 | Plant response rating, Morningglory [9, 16]: 10 | Plant response rating, Morningglory [9, 17]: 60 | Plant response rating, Morningglory [9, 18]: 0 | Plant response rating, Morningglory [9, 19]: 0 | Morningglory plant response rating [9, 20]: 0 | Morningglory plant response rating [9, 21]: 0 | Plant response rating, Morningglory [9, 22]: 15 | Plant response rating (scale of 0 to 100), Morningglory ([9]; Preemergence, 250 g ai/ha): 45 | Plant response rating, Nutsedge, Yellow [10, 16]: 0 | Plant response rating, Nutsedge, Yellow [10, 17]: 0 | Plant response rating, Nutsedge, Yellow [10, 18]: 0 | Plant response rating, Nutsedge, Yellow [10, 19]: 0 | Nutsedge, Yellow plant response rating [10, 20]: 0 | Nutsedge, Yellow plant response rating [10, 21]: 0 | Plant response rating, Nutsedge, Yellow [10, 22]: 0 | Plant response rating (scale of 0 to 100), Nutsedge, Yellow ([10]; Preemergence, 250 g ai/ha): 25 | Plant response rating, Velvetleaf [11, 16]: 35 | Plant response rating, Velvetleaf [11, 17]: 0 | Plant response rating, Velvetleaf [11, 18]: 25 | Plant response rating, Velvetleaf [11, 19]: 35 | Velvetleaf plant response rating [11, 20]: 10 | Velvetleaf plant response rating [11, 21]: 25 | Plant response rating, Velvetleaf [11, 22]: 50 | Plant response rating (scale of 0 to 100), Velvetleaf ([11]; Preemergence, 250 g ai/ha): 55
